Our source for the IC50 values is patent US8202879B2, “Quinazoline derivatives having tyrosine kinase inhibitory activity” (Shionogi & Co., Ltd., priority 2005, dated 2012).

Like-named read-outs stand apart in the source and are kept apart here.

The target of test [1] is T1, HER2 (Homo sapiens, UniProt P04626).
T1 construct: purchased Carna Biosciences, Inc; host or cells: insect cell expression system
The test can be described thus: Enzyme inhibitory activity on HER2 (time resolution fluorescence, biotinylated poly-Glu-Tyr substrate). The test is classed as biochemical. The gist of the method:
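Insect-cell-expressed HER2 (1000 ng/ml working stock) with biotinylated poly-Glu-Tyr (4:1; 3.125 μg/ml stock) and ATP (290 μM solution) in TBS with MgCl2, MnCl2, Na3VO4 and BSA, 60 min at room temperature. 10-point 4-fold dilutions from a 1 mM top solution. Phosphotyrosine detected by TR-FRET with Eu-antibody and streptavidin-XL.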

In test [2] the target is T2, EGFR (Homo sapiens, UniProt P00533).
T2 construct: purchased Carna Biosciences, Inc; host or cells: insect cell expression system
T2 sequence (P00533 25-1210): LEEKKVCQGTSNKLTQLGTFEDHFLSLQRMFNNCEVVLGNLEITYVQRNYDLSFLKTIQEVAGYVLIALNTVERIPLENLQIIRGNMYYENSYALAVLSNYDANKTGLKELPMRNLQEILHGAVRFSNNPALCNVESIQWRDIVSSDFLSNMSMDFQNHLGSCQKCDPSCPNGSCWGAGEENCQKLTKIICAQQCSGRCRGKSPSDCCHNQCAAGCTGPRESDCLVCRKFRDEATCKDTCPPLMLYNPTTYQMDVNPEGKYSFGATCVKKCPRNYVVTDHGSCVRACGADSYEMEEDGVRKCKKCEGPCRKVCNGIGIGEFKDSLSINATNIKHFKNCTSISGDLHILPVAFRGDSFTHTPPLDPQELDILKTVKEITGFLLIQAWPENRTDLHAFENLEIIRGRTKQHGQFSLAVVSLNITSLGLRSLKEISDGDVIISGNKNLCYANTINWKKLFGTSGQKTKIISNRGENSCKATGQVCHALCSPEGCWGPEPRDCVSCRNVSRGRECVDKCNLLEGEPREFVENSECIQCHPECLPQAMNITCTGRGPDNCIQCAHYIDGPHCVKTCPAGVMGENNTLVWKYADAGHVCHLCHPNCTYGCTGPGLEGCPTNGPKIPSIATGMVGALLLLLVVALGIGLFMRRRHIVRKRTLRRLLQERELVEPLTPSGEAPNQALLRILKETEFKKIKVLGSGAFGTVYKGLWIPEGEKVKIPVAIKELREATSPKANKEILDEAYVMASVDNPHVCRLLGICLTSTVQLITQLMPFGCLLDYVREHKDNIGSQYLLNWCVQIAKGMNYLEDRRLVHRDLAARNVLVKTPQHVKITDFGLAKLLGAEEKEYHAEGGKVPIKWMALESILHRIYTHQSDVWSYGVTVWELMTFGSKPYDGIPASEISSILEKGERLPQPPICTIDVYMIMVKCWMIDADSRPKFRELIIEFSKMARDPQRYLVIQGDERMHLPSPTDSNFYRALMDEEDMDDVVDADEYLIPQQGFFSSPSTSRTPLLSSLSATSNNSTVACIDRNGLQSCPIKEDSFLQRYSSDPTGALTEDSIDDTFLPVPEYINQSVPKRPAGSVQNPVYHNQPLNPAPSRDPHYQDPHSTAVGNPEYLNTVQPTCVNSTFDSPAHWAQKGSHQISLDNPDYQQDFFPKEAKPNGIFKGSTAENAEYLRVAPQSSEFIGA
As to the kind of experiment: Enzyme inhibitory activity on EGFR (time resolution fluorescence, biotinylated poly-Glu-Tyr substrate). The test is classed as biochemical. Put shortly: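 Insect-cell-expressed EGFR phosphorylated biotinylated poly-Glu-Tyr (4:1) for 60 min at room temperature in TBS with MgCl2, MnCl2, Na3VO4 and BSA. Enzyme 250 ng/ml, substrate 3.125 μg/ml and ATP 125 μM as working solutions. EDTA stop; Eu anti-phosphotyrosine/streptavidin-XL time-resolved fluorescence read; 10-point 4-fold dilutions.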

The subject of test [3] is BT-474. As to the kind of experiment: In vitro cell proliferation inhibition, WST assay. The test is classed as cell-based, human. The note with it: BT-474 cells, cultured for 3 days, read-out: BT-474 (nM) proliferation inhibitory activity (IC50 value). The protocol: Test of In Vitro Cell Proliferation Inhibition of Test Compound
As a human-derived cancer cell strain, BT-474 was used. Cells were all cultured in a 37° C., 5% CO2 incubator in a medium in which 10% bovine fetal serum (ICN) and 50 units ml penicillin/60 μg/ml streptomycin solution (GIBCO) were added to Dulbecco's Modified Essential Medium (DMEM, Nacalai Tesque, Inc).

Setting [4] is: HER2 purified from insect cell expression system, ATP solution 290 μM, room temperature, 60 minutes.
The mark [5] stands for this setting: EGFR purified from insect cell expression system, ATP solution 125 μM, room temperature, 60 minutes.
[6] abbreviates: enzyme reaction at room temperature for 60 minutes.

T1 sequence (P04626 23-1255): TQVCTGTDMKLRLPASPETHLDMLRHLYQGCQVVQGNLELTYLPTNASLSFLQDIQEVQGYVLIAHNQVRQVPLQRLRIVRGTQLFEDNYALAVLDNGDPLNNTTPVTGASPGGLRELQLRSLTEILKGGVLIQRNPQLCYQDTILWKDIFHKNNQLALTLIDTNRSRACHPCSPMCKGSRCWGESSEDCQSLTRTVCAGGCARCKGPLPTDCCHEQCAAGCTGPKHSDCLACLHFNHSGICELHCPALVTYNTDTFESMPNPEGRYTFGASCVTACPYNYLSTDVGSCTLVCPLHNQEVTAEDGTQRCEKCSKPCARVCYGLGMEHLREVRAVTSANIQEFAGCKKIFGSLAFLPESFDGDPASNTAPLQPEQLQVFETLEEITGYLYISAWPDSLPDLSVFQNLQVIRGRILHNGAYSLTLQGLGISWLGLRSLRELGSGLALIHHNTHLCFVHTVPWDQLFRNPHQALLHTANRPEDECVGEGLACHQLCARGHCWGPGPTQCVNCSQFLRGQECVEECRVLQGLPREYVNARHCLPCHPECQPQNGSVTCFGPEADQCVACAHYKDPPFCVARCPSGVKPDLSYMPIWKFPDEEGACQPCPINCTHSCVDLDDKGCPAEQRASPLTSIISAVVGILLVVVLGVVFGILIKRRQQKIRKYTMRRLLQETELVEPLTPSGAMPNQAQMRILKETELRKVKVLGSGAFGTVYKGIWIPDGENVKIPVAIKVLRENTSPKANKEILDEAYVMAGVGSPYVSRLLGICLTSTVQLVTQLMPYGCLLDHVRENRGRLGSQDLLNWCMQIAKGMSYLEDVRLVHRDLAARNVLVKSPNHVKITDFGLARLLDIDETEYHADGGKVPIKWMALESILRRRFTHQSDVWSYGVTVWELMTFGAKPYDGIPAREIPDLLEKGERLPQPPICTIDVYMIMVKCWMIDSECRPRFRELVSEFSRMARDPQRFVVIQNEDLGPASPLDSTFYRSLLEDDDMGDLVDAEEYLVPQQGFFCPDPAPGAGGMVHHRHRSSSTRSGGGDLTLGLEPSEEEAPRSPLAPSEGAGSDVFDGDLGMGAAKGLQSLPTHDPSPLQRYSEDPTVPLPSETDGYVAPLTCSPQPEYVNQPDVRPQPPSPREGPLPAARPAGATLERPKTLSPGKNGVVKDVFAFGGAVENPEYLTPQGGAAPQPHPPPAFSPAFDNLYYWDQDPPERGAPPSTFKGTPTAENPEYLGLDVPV

As for `CC#C/C(=N\OC[C@H]1NCCO[C@@H]1C)c1ccc2ncnc(Nc3ccc(OCc4cccc(F)c4)c(Cl)c3)c2c1` [VIII-107], the IC50 in test [1] (setting [4]) was found to be 135 nM; in test [2] (setting [5]), 150 nM; in test [3], 23 nM.
Turning to `CC#CC(=NOCC1CN(C)CCN1C)c1ccc2ncnc(Nc3ccc(OCc4cccc(F)c4)c(Cl)c3)c2c1` (stereo not drawn) [VIII-108], the IC50 in test [1] (setting [4]) came out at 56 nM; in test [2] (setting [5]) it was 53 nM; in test [3] (Homo sapiens, BT-474, 72 h), 31 nM.
Taken in the same sequence, the figures for `CC#C/C(=N\OC[C@@H]1CNC[C@H](C)O1)c1ccc2ncnc(Nc3ccc(OCc4cccc(F)c4)c(Cl)c3)c2c1` [VIII-109] were 18 nM, 23 nM and 40 nM.
In the case of `CC#C/C(=N\OC[C@@H]1CNC[C@@H](C)O1)c1ccc2ncnc(Nc3ccc(OCc4cccc(F)c4)c(Cl)c3)c2c1` [VIII-110], the IC50 was 35 nM in test [1] (setting [4]), 29 nM in test [2] (setting [5]) and 21 nM in test [3].
As for `CC#C/C(=N\OC[C@H]1CNCC(=O)N1)c1ccc2ncnc(Nc3ccc(OCc4cccc(F)c4)c(Cl)c3)c2c1` [VIII-111], the IC50 in test [1] (setting [4]) stood at 55 nM; in test [2] (setting [5]), 37 nM; in test [3], 15 nM.
Taken in the same sequence, the figures for `CC#C/C(=N\OC[C@H]1CN(CCO)CCN1)c1ccc2ncnc(Nc3ccc(OCc4cccc(F)c4)c(Cl)c3)c2c1` [VIII-112] were 13 nM, 11 nM and 8 nM.
`CC#C/C(=N\OC[C@H]1CN(C)CCN1)c1ccc2ncnc(Nc3ccc(OCc4cccc(F)c4)c(Cl)c3)c2c1` [VIII-113]: the IC50 in test [1] (setting [4]) is 12 nM; in test [2] (setting [5]), 9.7 nM; in test [3] (Homo sapiens, BT-474, 72 h), 13 nM.
With `CC#C/C(=N\OC[C@H]1CNCCO1)c1ccc2ncnc(Nc3ccc(OCc4cccc(F)c4)c(Cl)c3)c2c1` [VIII-114], the IC50 in test [1] (setting [4]) was found to be 69 nM; in test [2] (setting [5]), 57 nM; in test [3], 37 nM.
For `CC#C/C(=N\OC[C@H]1CNC[C@@H](C)O1)c1ccc2ncnc(Nc3ccc(OCc4cccc(F)c4)c(Cl)c3)c2c1` [VIII-116], the IC50 in test [1] (setting [4]) was determined as 25 nM; in test [2] (setting [5]), 37 nM; in test [3], 50 nM.
Taken in the same sequence, the figures for `CC#C/C(=N\OC[C@H]1CNC[C@H](C)O1)c1ccc2ncnc(Nc3ccc(OCc4cccc(F)c4)c(Cl)c3)c2c1` [VIII-117] were 53 nM, 47 nM and 20 nM.
Taken in the same sequence, the figures for `CC#C/C(=N\OC[C@H]1CS(=O)(=O)CCN1)c1ccc2ncnc(Nc3ccc(OCc4cccc(F)c4)c(Cl)c3)c2c1` [VIII-118] were 223 nM, 197 nM and 22 nM.
Taken in the same sequence, the figures for `CC#C/C(=N\OC[C@@H]1CNCC(=O)N1)c1ccc2ncnc(Nc3ccc(OCc4cccc(F)c4)c(Cl)c3)c2c1` [VIII-119] were 77 nM, 81 nM and 31 nM.
Turning to `CNCCO/N=C(\C#CC1CC1)c1ccc2ncnc(Nc3ccc(OCc4cccc(F)c4)c(Cl)c3)c2c1` [VIII-120], the IC50 in test [1] (setting [4]) is 29 nM; in test [2] (setting [5]), 33 nM; in test [3] (Homo sapiens, BT-474, 72 h), 32 nM.
Regarding `CNCCO/N=C(\C#CCO)c1ccc2ncnc(Nc3ccc(OCc4cccc(F)c4)c(Cl)c3)c2c1` [VIII-121], the IC50 in test [1] (setting [4]) was found to be 18 nM; in test [2] (setting [5]), 17 nM; in test [3], 10 nM.
Regarding `OCC#C/C(=N\OCCN1CCCC1)c1ccc2ncnc(Nc3ccc(OCc4cccc(F)c4)c(Cl)c3)c2c1` [VIII-122], the IC50 in test [1] (setting [4]) is 24 nM; in test [2] (setting [5]), 29 nM; in test [3] (Homo sapiens, BT-474, 72 h), 14 nM.
For `CNCCO/N=C(\C#CCOC)c1ccc2ncnc(Nc3ccc(OCc4cccc(F)c4)c(Cl)c3)c2c1` [VIII-123], the figures for the IC50 in test [1] (setting [6]), in test [2] (setting [6]) and in test [3] were 38 nM, 24 nM and 31 nM, respectively.
As for `COCC#C/C(=N\OCCN1CCCC1)c1ccc2ncnc(Nc3ccc(OCc4cccc(F)c4)c(Cl)c3)c2c1` [VIII-124], the IC50 turned out to be 38 nM in test [1] (setting [6]); 40 nM in test [2] (setting [6]); 14 nM in test [3] (Homo sapiens, BT-474, 72 h).
Take `CCCC#CC(=NOCCNC)c1ccc2ncnc(Nc3ccc(OCc4cccc(F)c4)c(Cl)c3)c2c1` [VIII-127]: the results for the IC50 in test [1] (setting [6]), in test [2] (setting [6]) and in test [3] were 35 nM, 37 nM and 61 nM, respectively.
For `CC#C/C(=N\OCCN1CCCC(O)C1)c1ccc2ncnc(Nc3ccc(OCc4ccccn4)c(Cl)c3)c2c1` (stereo not drawn) [VIII-128], the IC50 was 17 nM in test [1] (setting [6]); 15 nM in test [2] (setting [6]); 37 nM in test [3] (Homo sapiens, BT-474, 72 h).
Regarding `CC#C/C(=N\OC[C@@H](C)N)c1ccc2ncnc(Nc3ccc(OCc4ccccn4)c(Cl)c3)c2c1` [VIII-129], the IC50 was 6.3 nM in test [1] (setting [6]); 7.1 nM in test [2] (setting [6]); 12 nM in test [3] (Homo sapiens, BT-474, 72 h).
Taken in the same sequence, the figures for `CC#C/C(=N\OCCNC(C)COC)c1ccc2ncnc(Nc3ccc(OCc4ccccn4)c(Cl)c3)c2c1` (stereo not drawn) [VIII-130] were 5.2 nM, 8.1 nM and 50 nM.
`CC#C/C(=N\OC[C@@H](COC)NC)c1ccc2ncnc(Nc3ccc(OCc4ccccn4)c(Cl)c3)c2c1` [VIII-131]: the IC50 was 4.4 nM in test [1] (setting [6]); 5.8 nM in test [2] (setting [6]); 14 nM in test [3] (Homo sapiens, BT-474, 72 h).
Turning to `CC#C/C(=N\OCCNCCS(C)(=O)=O)c1ccc2ncnc(Nc3ccc(OCc4ccccn4)c(Cl)c3)c2c1` [VIII-132], the IC50 stood at 14 nM in test [1] (setting [6]); 14 nM in test [2] (setting [6]); 18 nM in test [3] (Homo sapiens, BT-474, 72 h).
Turning to `CC#C/C(=N\OCCNCCCN1CCCC1=O)c1ccc2ncnc(Nc3ccc(OCc4ccccn4)c(Cl)c3)c2c1` [VIII-133], the IC50 in test [1] (setting [6]) amounted to 7.1 nM; in test [2] (setting [6]) it was 8.4 nM; in test [3] (Homo sapiens, BT-474, 72 h), 43 nM.
As for `CC#C/C(=N\OCCNCCNC(C)=O)c1ccc2ncnc(Nc3ccc(OCc4ccccn4)c(Cl)c3)c2c1` [VIII-134], the IC50 is 7.4 nM in test [1] (setting [6]); 7.1 nM in test [2] (setting [6]); 14 nM in test [3] (Homo sapiens, BT-474, 72 h).
Taken in the same sequence, the figures for `CC#C/C(=N\OCCNCCOC(N)=O)c1ccc2ncnc(Nc3ccc(OCc4ccccn4)c(Cl)c3)c2c1` [VIII-135] were 8.1 nM, 7.6 nM and 28 nM.
Taken in the same sequence, the figures for `CC#C/C(=N\OCCNC1CC1)c1ccc2ncnc(Nc3ccc(OCc4ccccn4)c(Cl)c3)c2c1` [VIII-136] were 21 nM, 21 nM and 53 nM.
Taken in the same sequence, the figures for `CC#C/C(=N\OCCNC[C@@H]1CCCO1)c1ccc2ncnc(Nc3ccc(OCc4ccccn4)c(Cl)c3)c2c1` [VIII-137] were 14 nM, 13 nM and 78 nM.
For `CC#C/C(=N\OCCNC[C@@H](C)CO)c1ccc2ncnc(Nc3ccc(OCc4ccccn4)c(Cl)c3)c2c1` [VIII-139], the IC50 came to 3.8 nM in test [1] (setting [6]); 5 nM in test [2] (setting [6]); 32 nM in test [3] (Homo sapiens, BT-474, 72 h).
Taken in the same sequence, the figures for `CC#C/C(=N\OCCNC[C@H](C)CO)c1ccc2ncnc(Nc3ccc(OCc4ccccn4)c(Cl)c3)c2c1` [VIII-140] were 4.3 nM, 5.5 nM and 30 nM.
Taken in the same sequence, the figures for `CC#C/C(=N\OCCNC1CCOCC1)c1ccc2ncnc(Nc3ccc(OCc4ccccn4)c(Cl)c3)c2c1` [VIII-141] were 7.9 nM, 10 nM and 46 nM.
Taken in the same sequence, the figures for `CC#C/C(=N\OCCNC1CCN(S(C)(=O)=O)CC1)c1ccc2ncnc(Nc3ccc(OCc4ccccn4)c(Cl)c3)c2c1` [VIII-142] were 4.4 nM, 5.5 nM and 31 nM.
Take `CC#C/C(=N\OCCNCCO)c1ccc2ncnc(Nc3ccc(OCc4ccccn4)c(Cl)c3)c2c1` [VIII-143]: the IC50 in test [1] (setting [6]) worked out at 3.6 nM; in test [2] (setting [6]) it was 3.5 nM; in test [3] (Homo sapiens, BT-474, 72 h), 24 nM.
Taken in the same sequence, the figures for `CC#C/C(=N\OCCN(C)CCO)c1ccc2ncnc(Nc3ccc(OCc4ccccn4)c(Cl)c3)c2c1` [VIII-145] were 8.9 nM, 9.4 nM and 21 nM.
In the case of `CC#C/C(=N\OCCN(C)CCOC)c1ccc2ncnc(Nc3ccc(OCc4ccccn4)c(Cl)c3)c2c1` [VIII-146], the IC50 in test [1] (setting [6]) was determined as 10 nM; in test [2] (setting [6]) it was 12 nM; in test [3] (Homo sapiens, BT-474, 72 h) it was 45 nM.
Taken in the same sequence, the figures for `CC#C/C(=N\OCCCNC)c1ccc2ncnc(Nc3ccc(OCc4ccccn4)c(Cl)c3)c2c1` [VIII-147] were 13 nM, 13 nM and 25 nM.
Taken in the same sequence, the figures for `CC#C/C(=N\OCCN1CCCC1)c1ccc2ncnc(Nc3ccc(OCc4ccccn4)c(Cl)c3)c2c1` [VIII-148] were 5.8 nM, 6.1 nM and 26 nM.
Regarding `CC#C/C(=N\OCCN1CC[C@@H](NC(C)=O)C1)c1ccc2ncnc(Nc3ccc(OCc4ccccn4)c(Cl)c3)c2c1` [VIII-149], the IC50 in test [1] (setting [6]) worked out at 14 nM; in test [2] (setting [6]) it was 13 nM; in test [3] (Homo sapiens, BT-474, 72 h) it was 28 nM.
